Measured values as given in patent US12491170B2, “Stable treprostinil prodrugs” (United Therapeutics Corporation, priority 2020, dated 2025).

What was measured:
[1] = Stability in cryopreserved hepatocytes, human
Experimental: (§1) Mixed-gender human cryopreserved hepatocytes, male Sprague-Dawley rat cryopreserved hepatocytes, and male Beagle dog cryopreserved hepatocytes were purchased from XenoTech. The hepatocytes were thawed and prepared according to the vendor's instructions, pooled into Krebs Henseleit buffer (KHB, pH 7.4), and kept on ice prior to the experiments. […] The final DMSO content in the incubation mixture was ≤0.1%. […] Aliquots of the test article were withdrawn (n=1) at 0, 15, 30, 60, and 120 minutes. […] Aliquots of 7-HC were withdrawn (n=1) at 0 and 15 minutes. The reaction was immediately terminated by adding two volumes of ice-cold acetonitrile (ACN) to the test article samples and three volumes of ACN containing internal standard to the positive control samples. The samples were then mixed and centrifuged to precipitate proteins. An aliquot of the supernatant was then diluted with water and analyzed by LC-MS/MS against calibration standards prepared in a matched matrix. […] All test article samples were analyzed for the dosed prodrugs as well as the drug, treprostinil. The test article concentration was compared to the concentration at time 0 to determine the percent of test article remaining at each time point. Half-lives and clearance values were calculated using GraphPad software, fitting to a single-phase exponential decay equation.

[2] = Stability in cryopreserved hepatocytes, rat
Experimental: as §1

[3] = Stability in cryopreserved hepatocytes, dog
Experimental: as §1

[4] = Stability in human subcutaneous skin homogenate
Experimental: The pool of skin homogenate was prepared by combining equal volumes of three lots that were tested in the initial skin homogenate lot assessment experiments.
A stock solution of calcein-AM was first prepared at 5 mM in DMSO, followed by a serial dilution into methanol at a concentration of 100 μM. 495 μL of skin homogenate was thawed and warmed to 37° C. A 5 μL aliquot of the 100 μM calcein-AM solution was spiked into the skin homogenate, for a final calcein-AM dosing concentration of 1 μM. After briefly mixing, 150 μL aliquots were removed in triplicate and transferred to 96-well Falcon plates. The plates were placed onto a Thermomixer and maintained at 37° C., with gentle shaking for the duration of the experiment. At each time point (0, 15, 30, 60, and 120 minutes), the plate was removed from the Thermomixer and transferred to a FLUOstar® plate reader, and the formation of calcein (Sigma) was monitored by fluorescence (490/515 nm). Calibration standards of calcein were prepared in distilled water by serial dilutions of a calcein DMSO stock at final concentrations ranging from 1 μM to 1 nM. All samples and standards were read concurrently (Table 13).
For each of the test articles, 495 μL of skin homogenate was added to triplicate centrifuge tubes. To each tube, 5 μL of a 100 μM solution of test article was added, for a final test article dosing concentration of 1 μM. The tubes were placed onto a Thermomixer and maintained at 37° C. with gentle shaking for the duration of the experiment. At each time point (0, 30, 60, and 120 minutes), a 100 μL aliquot was removed from each tube and combined with 200 μL of acetonitrile to stop the stability reaction. The tubes were mixed and centrifuged at 3000 rpm for 10 minutes. Aliquots of supernatant were removed and diluted 1:1 with distilled water containing internal standard (2 μM treprostinil-d4). Calibration standards for the treprostinil analysis were prepared for each test article in a surrogate matrix (supernatant from a mixture of 1:2 human plasma:acetonitrile), at concentrations ranging from 1 μM to 1 nM. Calibration standards were also diluted 1:1 with distilled water containing internal standard. The disappearance of each individual test article was monitored, as well as the formation of treprostinil (Table 14 and Table 15).

[5] = Stability in liver microsomes, human; settings: human
Experimental: (§2) Mixed-gender human liver microsomes, male Sprague-Dawley rat liver microsomes, and male Beagle dog liver microsomes were purchased from XenoTech. The reaction mixture, minus NADPH, was prepared as described below. […] An aliquot of the reaction mixture (without cofactor) was equilibrated in a shaking water bath at 37° C. for 5 minutes. The reaction was initiated by the addition of cofactor, and the mixture was incubated in a shaking water bath at 37° C. Aliquots (200 μL) were withdrawn at 0, 10, 20, 30, and 60 minutes. Test article samples were immediately combined with 400 μL of ice-cold acetonitrile (ACN) to terminate the reaction. […] The samples were then mixed and centrifuged to precipitate proteins. Aliquots of the supernatant were removed, diluted 1:1 into distilled water containing internal standard, and analyzed by LC-MS/MS against calibration standards prepared in a matched matrix. All samples were analyzed for the dosed prodrugs as well as the drug, treprostinil. The test article concentration was compared to the concentration at time 0 to determine the percent of test article remaining at each time point. Half-lives and clearance were calculated using GraphPad software, fitting to a single-phase exponential decay equation.
(§3) • Liver Microsomes 0.5 mg/mL • NADPH (cofactor) 1 mM • Potassium Phosphate, pH 7.4 100 mM • Magnesium Chloride 5 mM • Test Article 1 μM

[6] = Stability in liver microsomes, rat; settings: rat
Experimental: as §2, §3

[7] = Stability in liver microsomes, dog; settings: dog
Experimental: as §2, §3

[8] = both, human, 15 min, 100 μM, pH 7.4
[9] = male, Sprague-Dawley, rat, 15 min, 100 μM, pH 7.4
[10] = male, Beagle, dog, 15 min, 100 μM, pH 7.4

For CCCCCC(CCC1C(O)CC2Cc3c(cccc3OCC(=O)O)CC21)OCc1oc(=O)oc1C (stereo not drawn) [LI], the “Trep Concentration (μM) 0 min” value [1] was 0.0425 µM, the “Trep Concentration (μM) 15 min” value [1] was 0.647 µM and the “Trep Concentration (μM) 30 min” value [1] was 0.626 µM. The “Trep Concentration (μM) 60 min” value [1] was 0.608 µM, the “Trep Concentration (μM) 120 min” value [1] was 0.55 µM and the “AUC” value ([1]; human) was 67.97 µmol·min/L. For the same compound, the “Trep Concentration (μM) 0 min” value [2] was 0.327 µM, the “Trep Concentration (μM) 15 min” value [2] was 0.703 µM and the “Trep Concentration (μM) 30 min” value [2] was 0.61 µM. For the same compound, the “Trep Concentration (μM) 60 min” value [2] was 0.523 µM, the “Trep Concentration (μM) 120 min” value [2] was 0.464 µM and the “AUC” value ([2]; rat) was 64.18 µmol·min/L. For the same compound, the “Trep Concentration (μM) 0 min” value [3] was 0.0214 µM, the “Trep Concentration (μM) 15 min” value [3] was 0.627 µM and the “Trep Concentration (μM) 30 min” value [3] was 0.605 µM. For the same compound, the “Trep Concentration (μM) 60 min” value [3] was 0.537 µM, the “Trep Concentration (μM) 120 min” value [3] was 0.482 µM and the “AUC” value ([3]; dog) was 61.80 µmol·min/L.
CCCCCC(CCC1C(O)CC2Cc3c(cccc3OCC(=O)O)CC21)OC(=O)OC (stereo not drawn) [IV 1st] gave an AUC ([4]; human) of 7.07 µmol·min/L.
With C[C@]12CC[C@H]3[C@@H](CCC4=CC(=O)CC[C@@]43C)[C@@H]1CC[C@@H]2O [Testosterone, testosterone, reference compound] the “Half-life (positive control)” value ([1]; human hepatocytes, 1 μM, control) was 4.82 min.
CCCCCC(CCC1C(O)CC2Cc3c(cccc3OCC(=O)O)CC21)OC(=O)OC (stereo not drawn) [IV 3rd] gave an AUC ([4]; human) of 9.59 µmol·min/L.
Compound CCCCCC(O)CCC1C(O)CC2Cc3c(cccc3OCC(=O)NCC(=O)O)CC21 (stereo not drawn) [VII new] has an AUC ([4]; human) of 0.00 µmol·min/L.
CCCCCC(CCC1C(O)CC2Cc3c(cccc3OCC(=O)O)CC21)OC(=O)OC (stereo not drawn) [IV 2nd] showed an AUC ([4]; human) of 62.69 µmol·min/L.
With CCCCCC(CCC1C(O)CC2Cc3c(cccc3OCC(=O)O)CC21)OC(=O)NC (stereo not drawn) [VIII] the “Trep Concentration (μM) 0 min” value [1] was 0 µM, the “Trep Concentration (μM) 15 min” value [1] was 0 µM and the “Trep Concentration (μM) 30 min” value [1] was 0 µM. The “Trep Concentration (μM) 60 min” value [1] was 0.00464 µM, the “Trep Concentration (μM) 120 min” value [1] was 0 µM and the “AUC” value ([1]; human) was 0.21 µmol·min/L. For the same compound, the “Trep Concentration (μM) 0 min” value [2] was 0 µM, the “Trep Concentration (μM) 15 min” value [2] was 0 µM and the “Trep Concentration (μM) 30 min” value [2] was 0 µM. The “Trep Concentration (μM) 60 min” value [2] was 0.00511 µM, the “Trep Concentration (μM) 120 min” value [2] was 0 µM and the “AUC” value ([2]; rat) was 0.23 µmol·min/L. For the same compound, the “Trep Concentration (μM) 0 min” value [3] was 0 µM, the “Trep Concentration (μM) 15 min” value [3] was 0 µM and the “Trep Concentration (μM) 30 min” value [3] was 0 µM. The “Trep Concentration (μM) 60 min” value [3] was 0 µM, the “Trep Concentration (μM) 120 min” value [3] was 0 µM and the “AUC” value ([3]; dog) was 0.00 µmol·min/L. For the same compound, the “Trep Concentration 0 min” value [4] was 0 µM, the “Trep Concentration 30 min” value [4] was 0 µM and the “Trep Concentration 60 min” value [4] was 0 µM. For the same compound, the “Trep Concentration 120 min” value [4] was 0 µM and the AUC ([4]; human) was 0.00 µmol·min/L.
In the case of CCCCCC(CCC1C(O)CC2Cc3c(cccc3OCC(=O)O)CC21)OC(=O)OC (stereo not drawn) [Prodrug IV], the “AUC Mono (treprostinil formed)” value [5] is reported as 16.9 µmol·min/L, the “AUC Mono (treprostinil formed)” value [6] is reported as 49.7 µmol·min/L and the “AUC Mono (treprostinil formed)” value [7] is reported as 56.0 µmol·min/L. For the same compound, the “Mono AUC (treprostinil formed)” value ([1]; human) was 39.8 µmol·min/L, the “Mono AUC (treprostinil formed)” value ([2]; rat) was 70.0 µmol·min/L and the “Mono AUC (treprostinil formed)” value ([3]; dog) was 48.0 µmol·min/L. For the same compound, the “Mono AUC (treprostinil formed)” value ([4]; human) was 9.59 µmol·min/L.
With CCCCCC(CCC1C(O)CC2Cc3c(cccc3OCC(=O)O)CC21)OC(=O)CCC(=O)O (stereo not drawn) [XX new] the “Trep Concentration 0 min” value [4] was 0 µM, the “Trep Concentration 30 min” value [4] was 0.00878 µM and the “Trep Concentration 60 min” value [4] was 0.0149 µM. For the same compound, the “Trep Concentration 120 min” value [4] was 0.0271 µM and the AUC ([4]; human) was 1.75 µmol·min/L.
For CCCCCC(CCC1C(O)CC2Cc3c(cccc3OCC(=O)O)CC21)OC(=O)OCCOC (stereo not drawn) [XL], the “Trep Concentration 0 min” value [4] was 0 µM, the “Trep Concentration 30 min” value [4] was 0.202 µM and the “Trep Concentration 60 min” value [4] was 0.329 µM. The “Trep Concentration 120 min” value [4] was 0.59 µM and the AUC ([4]; human) was 38.57 µmol·min/L.
For CCCCCC(CCC1C(O)CC2Cc3c(cccc3OCC(=O)O)CC21)OC(=O)OCCOCCOC (stereo not drawn) [XLI], the “Trep Concentration 0 min” value [4] was 0 µM, the “Trep Concentration 30 min” value [4] was 0.0526 µM and the “Trep Concentration 60 min” value [4] was 0.091 µM. For the same compound, the “Trep Concentration 120 min” value [4] was 0.19 µM and the AUC ([4]; human) was 11.37 µmol·min/L.
CCCCCC(O)CCC1C(O)CC2Cc3c(cccc3OCC(=O)NCC(=O)O)CC21 (stereo not drawn) [VII orig] gave an AUC ([4]; human) of 0.14 µmol·min/L.
For O=c1ccc2ccc(O)cc2o1 [7-Hydroxycoumarin, 7-hydroxycoumarin, reference compound], the “Formation Rate of 7-HC-G (glucuronide)” value [1, 8] was 97.7 pmol/min/10^6 cells, the “Formation Rate of 7-HC-S (sulfate)” value [1, 8] was 10.8 pmol/min/10^6 cells and the “Formation Rate of 7-HC-G (glucuronide)” value [2, 9] was 91.4 pmol/min/10^6 cells. The “Formation Rate of 7-HC-S (sulfate)” value [2, 9] was 24.7 pmol/min/10^6 cells, the “Formation Rate of 7-HC-G (glucuronide)” value [3, 10] was 114 pmol/min/10^6 cells and the “Formation Rate of 7-HC-S (sulfate)” value [3, 10] was 35.9 pmol/min/10^6 cells.
